Bounds are passed on as bounds.

What all share (assay): Transient transfection (transactivation) assay in CV-1 cells, GAL4-PPAR chimera, luciferase reporter
Common to all, as to assay type: cell-based
For orientation: A reporter such as luciferase makes a cellular process visible.

Experiment [1] concerns the target T1, PPAR gamma (Homo sapiens, UniProt P37231).
T1 construct: expressed in transfected cells; host or cells: CV-1 cells
T1 sequence (P37231 238-503 limits assumed): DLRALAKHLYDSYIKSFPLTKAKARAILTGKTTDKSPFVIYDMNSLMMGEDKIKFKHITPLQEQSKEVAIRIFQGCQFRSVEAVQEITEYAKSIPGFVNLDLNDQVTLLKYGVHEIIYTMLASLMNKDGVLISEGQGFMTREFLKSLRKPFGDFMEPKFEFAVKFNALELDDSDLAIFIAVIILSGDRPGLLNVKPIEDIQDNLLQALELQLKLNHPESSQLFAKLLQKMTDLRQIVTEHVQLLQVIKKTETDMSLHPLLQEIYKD

Experiment [2] concerns the target T2, PPAR delta (Homo sapiens, UniProt Q03181).
T2 construct: expressed in transfected cells; host or cells: CV-1 cells
T2 sequence (Q03181 211-439 limits assumed): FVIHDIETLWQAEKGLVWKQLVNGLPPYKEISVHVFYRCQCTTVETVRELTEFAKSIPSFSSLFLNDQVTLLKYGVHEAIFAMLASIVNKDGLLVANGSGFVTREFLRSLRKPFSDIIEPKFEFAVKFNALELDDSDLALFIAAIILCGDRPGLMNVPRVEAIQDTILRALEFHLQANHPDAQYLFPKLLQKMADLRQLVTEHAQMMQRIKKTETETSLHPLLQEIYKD

Experiment [3] addresses T3, PPAR alpha (Homo sapiens, UniProt Q07869).
T3 construct: expressed in transfected cells; host or cells: CV-1 cells
T3 sequence (Q07869 239-466 limits assumed): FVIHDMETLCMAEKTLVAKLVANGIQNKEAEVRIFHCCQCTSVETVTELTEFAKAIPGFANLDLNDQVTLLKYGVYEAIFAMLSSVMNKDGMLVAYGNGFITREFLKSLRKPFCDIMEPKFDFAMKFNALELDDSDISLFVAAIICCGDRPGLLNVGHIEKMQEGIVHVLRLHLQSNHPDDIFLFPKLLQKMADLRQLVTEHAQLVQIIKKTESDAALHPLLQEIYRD
The essentials: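 EC50 and efficacy come from a luciferase read-out after 20-24 hours of compound exposure (vehicle 1% DMSO) in transiently transfected CV-1 cells. These cells express a GAL4-PPAR ligand-binding-domain chimera plus a reporter with four or five GAL4 binding sites, and are kept in phenol-red free DME with 5% delipidated calf serum.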

As to `Cc1ccc(S(=O)(=O)N2[C@H](C)CN(c3ccc(C(F)(F)F)c(F)c3)C[C@@H]2C)cc1CC(=O)O` [Example 68, {5-[4-(3-Fluoro-4-trifluoromethyl-phenyl)-2,6-dimethyl-piperazine-1-sulfonyl]-2-methyl-phenyl}-acetic acid], the half-maximal effective concentration (EC50) (usually the concentration that produces a half-maximal response) is 5 to 100 µM in experiment [1], < 5 µM in experiment [2] and < 5 µM in experiment [3].
With `Cc1ccc(S(=O)(=O)N2CCN(c3ccc(C(F)(F)F)cn3)[C@@H](C)C2)cc1CC(=O)O` [Example 70, {2-Methyl-5-[(S)-3-methyl-4-(5-trifluoromethyl-pyridin-2-yl)-piperazine-1-sulfonyl]-phenyl}-acetic acid], the EC50 in experiment [1], in experiment [2] and in experiment [3] was < 5 µM each time.
For `Cc1ccc(S(=O)(=O)N2C[C@@H](C)N(c3ccc(C(F)(F)F)cn3)[C@@H](C)C2)cc1CC(=O)O` [Example 72, {2-Methyl-5-[3,5-dimethyl-4-(5-trifluoromethyl-pyridin-2-yl)-piperazine-1-sulfonyl]-phenyl}-acetic acid], the EC50 is > 100 µM in experiment [1], 5 to 100 µM in experiment [2] and > 100 µM in experiment [3].
In the case of `Cc1ccc(S(=O)(=O)N2CCN(c3ccc4occc4c3)CC2C)cc1CC(=O)O` (stereo not drawn) [Example 73, [5-(4-Benzofuran-5-yl-2-methyl-piperazine-1-sulfonyl)-2-methyl-phenyl]-acetic acid], the EC50 in experiment [1] is > 100 µM; in experiment [2] it was 5 to 100 µM; in experiment [3], > 100 µM.
`Cc1ccc(S(=O)(=O)N2CCN(c3ccc(C(F)(F)F)nn3)CC2)cc1CC(=O)O` [Example 74]: the EC50 was > 100 µM in experiment [1], 5 to 100 µM in experiment [2] and > 100 µM in experiment [3].
Take `COc1ccc(S(=O)(=O)N2CCN(c3ccc(C(F)(F)F)cc3)CC2)cc1CC(=O)O` [Example 75, {2-Methoxy-5-[4-(4-trifluoromethyl-phenyl)-piperazine-1-sulfonyl]-phenyl}-acetic acid]: the EC50 is 5 to 100 µM in experiment [1], < 5 µM in experiment [2] and > 100 µM in experiment [3].
For `COc1ccc(S(=O)(=O)N2CCN(c3ccc(C(F)(F)F)cn3)CC2)cc1CC(=O)O` [Example 76, {2-Methoxy-5-[4-(5-trifluoromethyl-pyridin-2-yl)-piperazine-1-sulfonyl]-phenyl}-acetic acid], in that order: 5 to 100 µM, < 5 µM and > 100 µM.
Turning to `COc1ccc(S(=O)(=O)N2CCN(c3ccc(C(F)(F)F)cn3)CC2C)cc1CC(=O)O` (stereo not drawn) [Example 77, {2-Methoxy-5-[2-methyl-4-(5-trifluoromethyl-pyridin-2-yl)-piperazine-1-sulfonyl]-phenyl}-acetic acid], the figures for the EC50 in experiment [1], in experiment [2] and in experiment [3] were 5 to 100 µM, < 5 µM and > 100 µM, respectively.
For `COc1ccc(S(=O)(=O)N2[C@H](C)CN(c3ccc(C(F)(F)F)cn3)C[C@@H]2C)cc1CC(=O)O` [Example 78, {5-[2,6-Dimethyl-4-(5-trifluoromethyl-pyridin-2-yl)-piperazine-1-sulfonyl]-2-methoxy-phenyl}-acetic acid], in that order: > 100 µM, < 5 µM and > 100 µM.
In the case of `COc1ccc(CC(=O)O)cc1S(=O)(=O)N1CCN(c2ccc(C(F)(F)F)cc2)CC1` [Example 79, {4-Methoxy-3-[4-(4-trifluoromethyl-phenyl)-piperazine-1-sulfonyl]-phenyl}-acetic acid], the EC50 in experiment [1] is 5 to 100 µM; in experiment [2], < 5 µM; in experiment [3], > 100 µM.
For `COc1ccc(CC(=O)O)cc1S(=O)(=O)N1CCN(c2ccc(C(F)(F)F)cn2)CC1` [Example 80], in that order: 5 to 100 µM, < 5 µM and > 100 µM.
For `COc1ccc(CC(=O)O)cc1S(=O)(=O)N1CCN(c2ccc(C(F)(F)F)cn2)CC1C` (stereo not drawn) [Example 81, {4-Methoxy-3-[2-methyl-4-(5-trifluoromethyl-pyridin-2-yl)-piperazine-1-sulfonyl]-phenyl}-acetic acid], in that order: 5 to 100 µM, 5 to 100 µM and > 100 µM.
Turning to `COc1ccc(CC(=O)O)cc1S(=O)(=O)N1[C@H](C)CN(c2ccc(C(F)(F)F)cn2)C[C@@H]1C` [Example 82, {3-[2,6-Dimethyl-4-(5-trifluoromethyl-pyridin-2-yl)-piperazine-1-sulfonyl]-4-methoxy-phenyl}-acetic acid], the EC50 is > 100 µM in experiment [1], 5 to 100 µM in experiment [2] and > 100 µM in experiment [3].
Regarding `Cc1ccc(S(=O)(=O)N2[C@H](C)CN(c3ccc(Cl)c(Cl)c3)C[C@@H]2C)cc1CC(=O)O` [Example 83, {5-[4-(3,4-Dichloro-phenyl)-2,6-dimethyl-piperazine-1-sulfonyl]-2-methyl-phenyl}-acetic acid], the EC50 in experiment [1] was > 100 µM; in experiment [2], < 5 µM; in experiment [3], > 100 µM.
`CN(C)Cc1cc(CC(=O)O)cc(S(=O)(=O)N2CCN(c3ccc(C(F)(F)F)cc3)CC2)c1` [Example 84, {3-Dimethylaminomethyl-5-[4-(4-trifluorometbyl-phenyl)-piperazine-1-sulfonyl]-phenyl}-acetic acid]: the EC50 in experiment [1], in experiment [2] and in experiment [3] was > 100 µM each time.
Consider `COCc1cc(CC(=O)O)cc(S(=O)(=O)N2CCN(c3ccc(C(F)(F)F)cc3)CC2)c1` [Example 85, {3-Methoxymethyl-5-[4-(4-trifluoromethyl-phenyl)-piperazine-1-sulfonyl]-phenyl}-acetic acid], for which the EC50 was > 100 µM in experiment [1], 5 to 100 µM in experiment [2] and > 100 µM in experiment [3].
On to `Cc1ccc(S(=O)(=O)N2CCN(c3cnc(Cl)cn3)CC2)cc1CC(=O)O` [Example 86], for which the EC50 in experiment [1], in experiment [2] and in experiment [3] was > 100 µM in each case.
On to `Cc1ccc(S(=O)(=O)N2CCN(c3ccc(OC(F)(F)F)cc3)CC2)cc1CC(=O)O` [Example 87, {2-Methyl-5-[4-(4-trifluoromethoxy-phenyl)-piperazine-1-sulfonyl]-phenyl}-acetic acid], for which the EC50 is 5 to 100 µM in experiment [1], < 5 µM in experiment [2] and < 5 µM in experiment [3].
Turning to `CCNCc1cc(CC(=O)O)cc(S(=O)(=O)N2CCN(c3ccc(C(F)(F)F)cc3)CC2)c1` [Example 88, {3-Ethylaminomethyl-5-[4-(4-trifluoromethyl-phenyl)-piperazine-1-sulfonyl]-phenyl}-acetic acid], the EC50 in experiment [1], in experiment [2] and in experiment [3] was > 100 µM throughout.
As for `COCCNCc1cc(CC(=O)O)cc(S(=O)(=O)N2CCN(c3ccc(C(F)(F)F)cc3)CC2)c1` [Example 89, {3-[(2-Methoxy-ethylamino)-methyl]-5-[4-(4-trifluoromethyl-phenyl)-piperazine-1-sulfonyl]-phenyl}-acetic acid], the 50% effective concentration (EC50) in experiment [1], in experiment [2] and in experiment [3] was > 100 µM throughout.
Consider `Cc1ccc(S(=O)(=O)N2CCN(c3ccc(C(F)(F)F)c(F)c3)[C@@H](C)C2)cc1CC(=O)O` [Example 90, {5-[4-(3-Fluoro-4-trifluoromethyl-phenyl)-3-(S)-methyl-piperazine-1-sulfonyl]-2-methyl-phenyl}-acetic acid], for which the concentration giving a half-maximal response (EC50) was 5 to 100 µM in experiment [1], < 5 µM in experiment [2] and < 5 µM in experiment [3].

These data come from patent US20050234046A1 (Kalypsys, Inc., priority 2004, published 2005).
